This is an account of results in patent US4440757A, “Pharmaceutical composition comprising derivative of aminobenzoic acid for regulating prostaglandin” (priority 1978, dated 1984).

The test system of assay [1] is male Donryu rats. Description: Stress ulcer of the stomach and 6-keto PGF1α. Type of assay: in vivo. The following applies: 1 g/kg p.o.; for Ulcer-coefficient: 7 hours stress, control 100; for Amount of 6-keto PGF1α: plasma, control 3.3. As to the method: Three groups of male Donryu rats of body weight of 220 to 250 g after 23.5 hours of fasting were administered orally with the present substance (each of Specimen Nos. 4, 7 and 8) at a rate of one gram/kg dissolved in 8 ml (per 200 g body weight) of an aqueous physiological saline solution.
These three groups of rats and another group of rats equally fasted for 23.5 hours and then administered with only the aqueous physiological saline solution were put into the stresscage, and soaked in water at a temperature of 23° C. to the depth of their breast to load the stress on the rats.
After 7 hours of soaking, the rats were pulled out from water and were immediately sacrificed to collect the whole blood, and their stomachs were extirpated. The plasma fraction prepared from the blood was extracted with ether and the etherextract was separated by thin layer chromatography. The separated extract, after converted to the respective methyloximesilyl derivatives, was subjected to gaschromatography-mass spectorography to determine the content of 6-keto PGF1α.
An aqueous 1% solution of formaldehyde was injected into the extirpated stomach and after 10 min of injection, the stomach was cut to be opened at the greater curvature side to examine the mucous membrane of the gastric body. The longer span of each erosion in the mucous membrane of a rat, if any, was measured microscopically, and its sum expressed by millimeter was taken as an ulcer coefficient of the rat.

In assay [2] the test system is cats. Description: Pyrexia caused by pyrogen (Shigella dysentriae o-antigen) and PGE in c.s.f. The assay is classed as in vivo, cat. The procedure: The experiments were carried out on cats weighing 3 to 3.5 kg. In an aseptic operation under intraperitoneally administered sodium pentobarbitone at 36 mg/kg, a Collison cannula was implanted into the rostral part of the third ventricle of the cat.
A few days after implantation of the cannula, when the cat had recovered from the operation, specimens of cerebrospinal fluid were collected without anesthesia, whilst the cat was kept unrestrained in its cage, and its rectal temperature was recorded.
The specimens of cerebrospinal fluid (c.s.f.) were assayed immediately after collection, or after having been stored at -2° for 24 to 48 hours, and the determination of PGE in the specimens was carried out as in Example 9 using ^3 H-Prostaglandin E Radioimmunoassay Kit (manufactured by Clinical Assay Co., USA). Rectal temperature was recorded at room temperature (21° to 23° C.) with the thermistor probe inserted about 10 cm deep into the rectum.
As the pyrogen, somatic type o-antigen of Shigella dysentriae was used, and after dissolving 75 ng of the pyrogen into 0.15 ml of a pyrogen-free artificial c.s.f., the solution was injected into the third ventricle through the implanted cannula to induce fever.
After 2 hours of administration, the rectal temperature was measured to confirm the occurrence of pyrexia and then the present substance (each of Specimens Nos. 4, 7 and 8) was forcibly administered orally as an aqueous solution in distilled water at a rate of 100 mg/kg, control being administered only with distilled water in this time.
The rectal temperature of all animals was measured after one hour of the administration of the present substance.
The c.s.f. for the determination of its content of PGE was collected respectively before and after 2 hours of the injection of the pyrogen and after one hour of the administration of the present substance.

The test system of assay [3] is washed platelets, malondialdehyde. Description: Level of malondialdehyde (MDA) of platelets. Type of assay: cell-based, human. The following applies: Ca ionophore A-23187, 5 min, 37° C. The procedure:
PRP collected from human blood was centrifugated and washed to be "washed platelets". After adding one of the present substances (Specimens Nos. 4, 7 and 8) to the washed platelets, Caionophore A-23187 was further added to them and the mixture was incubated for 5 minutes at 37° C. Then, thiobarbituric acid was added to the incubated mixture, as a colour developer, and the mixture was extracted with a solvent mixture of methanol and butanol. The absorption at 535 nm was colorimetrically read to determine the amount of malondialdehyde (MDA). […] From this fact also, the participation of the present substance in the metabolism of PGs is presumable.

Assay [4] deals with streptozotocin diabetic rats. In words: Blood sugar of diabetic rats. The following applies: 100 mg/kg p.o., 6 hours, diabetic rat; not administered 412.1, normal 76.7. The assay is classed as in vivo, male Sprague-Dowley rats. As to the method: Groups of male Sprague-Dowley rats of body weight of about 200 g are used for the present experiments. Some groups of the rats were intravenously administered with streptozotocin at 80 mg/kg one to three months in advance of the beginning of the present experiment to be in a state of diabetes mellitus. Those rats of the same strain, the same sex and the same age without being administered with streptozotocin were used as control.
The present substances (Specimens Nos. 4, 7 and 8) were respectively administered to the groups of rats suffering from the artificial diabetes mellitus forcibly by oral route at a rate of 100 mg/kg as an aqueous solution in distilled water.
After 6 hours of the administration of the present substance, blood specimen was collected from the rat under anesthesia by ether in an amount of 0.5 ml/animal, and the content of blood sugar was measured by the enzymatic method.

The subject of assay [5] is cervical aorta of an SD rat, PGI2. Description: PGI2 production by cuttings of cervical aorta. The assay is classed as cell-based. The following applies: 50 microliters of 2% solution into 500 microliters, 10 min. As to the method: After extirpating the cervical aorta of an SD rat under anesthsia, it was washed with Krebs-Linger bicarbonate buffer solution and cut into thin rings, and the cutings were kept in the above-mentioned buffer solution at a rate of 1 mg of wet cuttings per 0.5 ml to produce PGI2.
Into 500 microliters of the thus prepared mixture, 50 micro-liters of an aqueous physiological saline solution containing 2% by weight of the present substance (each of Specimens Nos. 4, 7 and 8) dissolved therein were added and, since the production of PGI2 generally attains to its maximum after 10 min of keeping, a supernatant liquid (2.5 μl) of the mixture was prepared after 10 min of the addition, and then the amount of PGI2 in the supernatant liquid was determined by using the action of suppression of aggregation of the platelets as an index and using ADP as the agglutinating agent, only an aqueous physiological solution being used as control.

Assay [6] relates to Ehrlich cancer. In words: Cancer proliferation and PGE in the cancer cells (Ehrlich). Type of assay: in vivo, C57BL/6 mouse. The following applies: 100 mg/kg i.p. every other day, 14th day; for Weight of cancer: control 1.30; for Content of PGE in the cancer: control 1.77. As to the method: Following the same method as in Example 12, the anti-cancer action against transplanted Ehrlich cancer in C57BL/6 mouse, and the amount of PGE in the cancer cells in proliferation in the living body of the mouse were examined in the cases where each one compound of the present invention, Specimens Nos. 1, 2, 3, 4, 5, 6, 8, 9, 10 and 11 was intraperitoneally administered every other day from the next day of the transplantation in total 6 times at a dosage of 100 mg/kg.
The results of determination of the weight of cancer extirpated from the sacrificed mouse on 14th day of the transplantation of the cancer cells, 1×10^6 in number per animal, and content of PGE of the extirpated cancer are shown in the following Table 13: […]

Setting [7] is: 1 hour after admin. Specimen, 100 mg/kg p.o., control 10.
Setting [8] is: 1 hour after admin. Specimen, 100 mg/kg p.o., control 40.7.
The mark [9] stands for this setting: 2 hours after admin. pyrogen (before dosing).
[10] abbreviates: before admin. pyrogen (before dosing).

In the case of `O=C(O)c1ccc(NC2O[C@H](CO)[C@@H](O)[C@H](O)[C@@H]2O)cc1` (stereo partly drawn) [Specimen No. 4, Sodium p-aminobenzoate-N--D-mannoside], the Ulcer-coefficient in assay [1] is listed as 62%. In assay [1], the “Amount of 6-keto PGF1α” value came out at 3.8 ng/mL. The “Amount of PGE in c.s.f.” value is 5 ng/ml of c.s.f in assay [2] (setting [7]), 11 ng/ml of c.s.f in assay [2] (setting [9]) and 2.6 ng/ml of c.s.f in assay [2] (setting [10]). In addition, the results for the Rectal temperature in assay [2] (setting [8]), in assay [2] (setting [9]) and in assay [2] (setting [10]) were 39.9 °C, 41.3 °C and 39.0 °C, respectively. Besides, the “production of malondialdehyde (MDA) (FIG. 8)” value (“production of malondialdehyde” below) in assay [3] is “suppressed the production of MDA”. In assay [4], this molecule came in with a Blood sugar of 133.6 ± 8.3 mg/100 ml. Also, in assay [5], the “production of PGI2 by cuttings of cervical aorta (FIG. 15)” value (shortened to “production of PGI2”) is “raised the production of PGI2”. Also, in assay [6], the Weight of cancer is 0.56 g. Further, in assay [6], the “Content of PGE in the cancer” value came out at 4.19 ng/g.
With `O=C(O)c1ccc(NC2OC[C@@H](O)[C@H](O)[C@H]2O)cc1` (stereo partly drawn) [Specimen No. 7, Sodium p-aminobenzoate-N--D-xyloside], in assay [1], the Ulcer-coefficient is 58% and the “Amount of 6-keto PGF1α” value amounted to 3.9 ng/mL. In addition, in assay [2] (setting [7]), the “Amount of PGE in c.s.f.” value is given as 6 ng/ml of c.s.f. Also, the Rectal temperature in assay [2] (setting [8]) amounted to 39.5 °C. For the same molecule, in assay [2] (setting [9]), the “Amount of PGE in c.s.f.” value was 16 ng/ml of c.s.f and the Rectal temperature is 41.1 °C. Also, in assay [2] (setting [10]), the “Amount of PGE in c.s.f.” value is on record as 2.4 ng/ml of c.s.f and the Rectal temperature was determined as 38.8 °C. Also, the “production of malondialdehyde” value in assay [3] is listed as “suppressed the production of MDA”. The same molecule returned a Blood sugar in assay [4] of 165.0 ± 11.0 mg/100 ml. Also, the “production of PGI2” value in assay [5] was “raised the production of PGI2”. For the same molecule, in assay [6], the Weight of cancer is reported as 0.75 g and the “Content of PGE in the cancer” value came to 3.98 ng/g.
In assay [1], `C[C@@H]1OC(Nc2ccc(C(=O)O)cc2)[C@H](O)[C@H](O)[C@H]1O` (stereo partly drawn) [Specimen No. 8, Sodium p-aminobenzoate-N--L-rhamnoside] yielded a Ulcer-coefficient of 55%. Further, the “Amount of 6-keto PGF1α” value in assay [1] worked out at 3.6 ng/mL. Moreover, the “Amount of PGE in c.s.f.” value in assay [2] (setting [7]) was 8 ng/ml of c.s.f; in assay [2] (setting [9]) it was 13 ng/ml of c.s.f. Moreover, the Rectal temperature in assay [2] (setting [8]) was 40.0 °C; in assay [2] (setting [9]) it was 41.5 °C; in assay [2] (setting [10]) it was 39.1 °C. In assay [3], the “production of malondialdehyde” value was “suppressed the production of MDA”. Moreover, the Blood sugar in assay [4] worked out at 110.1 ± 5.5 mg/100 ml. Further, the “production of PGI2” value in assay [5] is on record as “raised the production of PGI2”. Besides, the Weight of cancer in assay [6] came out at 0.72 g. Further, the “Content of PGE in the cancer” value in assay [6] is given as 4.03 ng/g.
